From PubChem BioAssay (NCI)
“And” between values parts separate entries of the source, which are not always exact repeats. Equal values may be shown once.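 Cells were grown in 96-well plates and exposed to each compound for 48 hours at five concentrations; endpoints were interpolated linearly between bracketing concentrations, or set to the highest concentration if not reached. Abbreviation: GI50, concentration required for 50% inhibition of growth. TGI: total growth inhibition.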

Key:
Experiment in all cases: NCI tumour cell line growth inhibition, 48 h
786-0 renal = test system: 786-0 renal
A549 NSCLC = test system: A549 NSCLC
ACHN renal = test system: ACHN renal
CAKI-1 renal = test system: CAKI-1 renal
CCRF-CEM leukemia = test system: CCRF-CEM leukemia
COLO 205 colon = test system: COLO 205 colon
DLD-1 colon = test system: DLD-1 colon
DMS 114 small cell lung = test system: DMS 114 small cell lung
EKVX NSCLC = test system: EKVX NSCLC
HCC-2998 colon = test system: HCC-2998 colon
HCT-116 colon = test system: HCT-116 colon
HCT-15 colon = test system: HCT-15 colon
HOP-18 NSCLC = test system: HOP-18 NSCLC
HOP-62 NSCLC = test system: HOP-62 NSCLC
HOP-92 NSCLC = test system: HOP-92 NSCLC
IGROV1 ovarian = test system: IGROV1 ovarian
K-562 leukemia = test system: K-562 leukemia
KM12 colon = test system: KM12 colon
LOX IMVI melanoma = test system: LOX IMVI melanoma
LXFL 529 NSCLC = test system: LXFL 529 NSCLC
M19-MEL melanoma = test system: M19-MEL melanoma
MALME-3M melanoma = test system: MALME-3M melanoma
MOLT-4 leukemia = test system: MOLT-4 leukemia
NCI-H226 lung = test system: NCI-H226 lung
NCI-H23 lung = test system: NCI-H23 lung
OVCAR-3 ovarian = test system: OVCAR-3 ovarian
OVCAR-4 ovarian = test system: OVCAR-4 ovarian
OVCAR-5 ovarian = test system: OVCAR-5 ovarian
OVCAR-8 ovarian = test system: OVCAR-8 ovarian
RPMI-8226 leukemia = test system: RPMI-8226 leukemia
RXF 393 renal = test system: RXF 393 renal
SF-268 CNS = test system: SF-268 CNS
SF-295 CNS = test system: SF-295 CNS
SF-539 CNS = test system: SF-539 CNS
SK-MEL-2 melanoma = test system: SK-MEL-2 melanoma
SK-MEL-28 melanoma = test system: SK-MEL-28 melanoma
SK-MEL-5 melanoma = test system: SK-MEL-5 melanoma
SK-OV-3 ovarian = test system: SK-OV-3 ovarian
SN12C renal = test system: SN12C renal
SNB-19 CNS = test system: SNB-19 CNS
SNB-78 CNS = test system: SNB-78 CNS
SW-620 colon = test system: SW-620 colon
U251 CNS = test system: U251 CNS
UACC-257 melanoma = test system: UACC-257 melanoma
UACC-62 melanoma = test system: UACC-62 melanoma
UO-31 renal = test system: UO-31 renal
A498 renal = test system: A498 renal
HL-60(TB) leukemia = test system: HL-60(TB) leukemia
HT29 colon = test system: HT29 colon
NCI-H460 lung = test system: NCI-H460 lung
NCI-H522 lung = test system: NCI-H522 lung
SR leukemia = test system: SR leukemia
TK-10 renal = test system: TK-10 renal
BT-549 breast = test system: BT-549 breast
DU-145 prostate = test system: DU-145 prostate
HS 578T breast = test system: HS 578T breast
M14 melanoma = test system: M14 melanoma
MCF7 breast = test system: MCF7 breast
MDA-MB-231 breast = test system: MDA-MB-231 breast
MDA-MB-435 = test system: MDA-MB-435
MDA-N = test system: MDA-N
NCI/ADR-RES ovarian = test system: NCI/ADR-RES ovarian
PC-3 prostate = test system: PC-3 prostate
SNB-75 CNS = test system: SNB-75 CNS
T-47D breast = test system: T-47D breast

## COc1ccc(/C=N/N=C(\N)NO)c(OC)c1
786-0 renal
  TGI: > 100 µM
A549 NSCLC
  TGI: > 100 µM
ACHN renal
  TGI: > 100 µM
CAKI-1 renal
  TGI: > 100 µM
CCRF-CEM leukemia
  TGI: > 100 µM
COLO 205 colon
  TGI: > 100 µM
DLD-1 colon
  TGI: > 100 µM
DMS 114 small cell lung
  TGI: > 100 µM
EKVX NSCLC
  TGI: > 100 µM
HCC-2998 colon
  TGI: 43.7 µM
HCT-116 colon
  TGI: > 100 µM
HCT-15 colon
  TGI: > 100 µM
HOP-18 NSCLC
  TGI: > 100 µM
HOP-62 NSCLC
  TGI: 84.3 µM
HOP-92 NSCLC
  TGI: > 100 µM
IGROV1 ovarian
  TGI: > 100 µM
K-562 leukemia
  TGI: > 100 µM
KM12 colon
  TGI: > 100 µM
LOX IMVI melanoma
  TGI: > 100 µM
LXFL 529 NSCLC
  TGI: 86.3 µM
M19-MEL melanoma
  TGI: > 100 µM
MALME-3M melanoma
  TGI: > 100 µM
MOLT-4 leukemia
  TGI: > 100 µM
NCI-H226 lung
  TGI: > 100 µM
NCI-H23 lung
  TGI: > 100 µM
OVCAR-3 ovarian
  TGI: > 100 µM
OVCAR-4 ovarian
  TGI: > 100 µM
OVCAR-5 ovarian
  TGI: 36.1 µM
OVCAR-8 ovarian
  TGI: > 100 µM
RPMI-8226 leukemia
  TGI: > 100 µM
RXF 393 renal
  TGI: > 100 µM
SF-268 CNS
  TGI: > 100 µM
SF-295 CNS
  TGI: 70.7 µM
SF-539 CNS
  TGI: > 100 µM
SK-MEL-2 melanoma
  TGI: > 100 µM
SK-MEL-28 melanoma
  TGI: > 100 µM
SK-MEL-5 melanoma
  TGI: > 100 µM
SK-OV-3 ovarian
  TGI: > 100 µM
SN12C renal
  TGI: > 100 µM
SNB-19 CNS
  TGI: > 100 µM
SNB-78 CNS
  TGI: > 100 µM
SW-620 colon
  TGI: > 100 µM
U251 CNS
  TGI: > 100 µM
UACC-257 melanoma
  TGI: > 100 µM
UACC-62 melanoma
  TGI: > 100 µM
UO-31 renal
  TGI: > 100 µM

## Cc1nc2c(sc(=S)n2-c2ccccc2)c(=O)[nH]1
A498 renal
  TGI: > 100 µM
A549 NSCLC
  TGI: > 100 µM
ACHN renal
  TGI: > 100 µM
CCRF-CEM leukemia
  TGI: > 100 µM
COLO 205 colon
  TGI: > 100 µM
DLD-1 colon
  TGI: > 100 µM
HCC-2998 colon
  TGI: > 100 µM
HCT-116 colon
  TGI: > 100 µM
HL-60(TB) leukemia
  TGI: > 100 µM
HOP-18 NSCLC
  TGI: > 100 µM
HOP-62 NSCLC
  TGI: > 100 µM
HOP-92 NSCLC
  TGI: > 100 µM
HT29 colon
  TGI: > 100 µM
IGROV1 ovarian
  TGI: > 100 µM
K-562 leukemia
  TGI: > 100 µM
KM12 colon
  TGI: > 100 µM
LXFL 529 NSCLC
  TGI: > 100 µM
MALME-3M melanoma
  TGI: > 100 µM
MOLT-4 leukemia
  TGI: > 100 µM
NCI-H226 lung
  TGI: > 100 µM
NCI-H23 lung
  TGI: > 100 µM
NCI-H460 lung
  TGI: > 100 µM
NCI-H522 lung
  TGI: > 100 µM
OVCAR-3 ovarian
  TGI: > 100 µM
OVCAR-5 ovarian
  TGI: > 100 µM
OVCAR-8 ovarian
  TGI: > 100 µM
RPMI-8226 leukemia
  TGI: > 100 µM
SF-268 CNS
  TGI: > 100 µM
SF-295 CNS
  TGI: > 100 µM
SF-539 CNS
  TGI: > 100 µM
SK-MEL-2 melanoma
  TGI: > 100 µM
SK-MEL-28 melanoma
  TGI: > 100 µM
SK-MEL-5 melanoma
  TGI: > 100 µM
SK-OV-3 ovarian
  TGI: > 100 µM
SNB-19 CNS
  TGI: > 100 µM
SR leukemia
  TGI: > 100 µM
SW-620 colon
  TGI: > 100 µM
TK-10 renal
  TGI: > 100 µM
U251 CNS
  TGI: > 100 µM
UACC-257 melanoma
  TGI: > 100 µM
UACC-62 melanoma
  TGI: > 100 µM
UO-31 renal
  TGI: > 100 µM

## NC(=S)N/N=C/c1ncccc1N
786-0 renal
  GI50: 0.419 µM
  TGI: > 33.6 µM
A498 renal
  TGI: > 73.1 µM
A549 NSCLC
  GI50: 3.16 µM
  TGI: > 100 µM
BT-549 breast
  GI50: 2.96 µM
  TGI: > 100 µM
CAKI-1 renal
  GI50: 0.357 µM
  TGI: > 38.5 µM
CCRF-CEM leukemia
  GI50: 1.14 µM
  TGI: > 58.4 µM
COLO 205 colon
  GI50: 2.54 µM
  TGI: 12.1 µM and > 10 µM
DU-145 prostate
  GI50: 1.04 µM
EKVX NSCLC
  GI50: 5.13 µM
  TGI: > 100 µM
HCC-2998 colon
  GI50: 1.14 µM
  TGI: > 100 µM
HCT-116 colon
  GI50: 1.16 µM
  TGI: > 33.7 µM
HCT-15 colon
  GI50: 3.14 µM
  TGI: > 100 µM
HL-60(TB) leukemia
  GI50: 0.867 µM
  TGI: 6.45 µM and > 6.69 µM
HOP-62 NSCLC
  GI50: 0.739 µM
  TGI: 13.1 µM and 9.78 µM
HOP-92 NSCLC
  GI50: > 87.2 µM
  TGI: > 100 µM
HS 578T breast
  GI50: 37.5 µM
  TGI: > 100 µM
HT29 colon
  GI50: 2.19 µM
  TGI: > 63.4 µM
IGROV1 ovarian
  GI50: 0.807 µM
  TGI: > 100 µM
K-562 leukemia
  GI50: 4.82 µM
  TGI: > 93.4 µM
KM12 colon
  GI50: 5.38 µM
  TGI: > 100 µM
LOX IMVI melanoma
  GI50: 0.439 µM
  TGI: 8.25 µM and > 10 µM
M14 melanoma
  TGI: 5.27 µM and 2.62 µM
MALME-3M melanoma
  GI50: 3 µM
  TGI: > 90.5 µM
MCF7 breast
  GI50: 0.32 µM
  TGI: 27.2 µM and > 10 µM
MDA-MB-231 breast
  GI50: 3.79 µM
  TGI: > 100 µM
MDA-MB-435
  GI50: 5.17 µM
  TGI: > 100 µM
MDA-N
  TGI: > 10 µM
MOLT-4 leukemia
  GI50: 1.04 µM
  TGI: 44.8 µM and > 10 µM
NCI-H226 lung
  GI50: 1.01 µM
  TGI: 8.24 µM and > 10 µM
NCI-H23 lung
  TGI: 6.83 µM and > 3.07 µM
NCI-H460 lung
  GI50: 0.654 µM
  TGI: 12.6 µM and > 10 µM
NCI-H522 lung
  GI50: 1.71 µM
  TGI: 6.62 µM and > 10 µM
NCI/ADR-RES ovarian
  GI50: 1.66 µM
  TGI: 14.9 µM and 8.77 µM
OVCAR-3 ovarian
  GI50: 2.54 µM
  TGI: > 56.6 µM
OVCAR-4 ovarian
  GI50: 3.57 µM
  TGI: > 50 µM
OVCAR-5 ovarian
  GI50: 5.98 µM
  TGI: > 100 µM
OVCAR-8 ovarian
  TGI: > 100 µM
PC-3 prostate
  GI50: 6.5 µM
  TGI: > 100 µM
RPMI-8226 leukemia
  GI50: 1.45 µM
  TGI: > 100 µM
RXF 393 renal
  GI50: 0.489 µM
  TGI: > 47.5 µM
SF-268 CNS
  GI50: 0.731 µM
  TGI: 51.9 µM and > 8.29 µM
SF-295 CNS
  GI50: 0.654 µM
  TGI: 10.7 µM and 5.07 µM
SF-539 CNS
  TGI: 1.23 µM and 0.673 µM
SK-MEL-2 melanoma
  GI50: 75.7 µM
  TGI: > 100 µM
SK-MEL-28 melanoma
  GI50: 12.6 µM
  TGI: > 100 µM
SK-MEL-5 melanoma
  GI50: 0.534 µM
  TGI: 22.3 µM and > 10 µM
SK-OV-3 ovarian
  GI50: 3.24 µM
  TGI: 51.3 µM and > 10 µM
SN12C renal
  GI50: 0.789 µM
  TGI: 16.5 µM and > 10 µM
SNB-19 CNS
  GI50: 1.78 µM
  TGI: > 84.9 µM
SNB-75 CNS
  GI50: 0.674 µM
  TGI: 25.3 µM and > 8.46 µM
SR leukemia
  TGI: 18.9 µM and > 10 µM
SW-620 colon
  GI50: 1.45 µM
  TGI: > 48.4 µM
T-47D breast
  GI50: 1.92 µM
  TGI: 23.2 µM and > 10 µM
TK-10 renal
  GI50: 50.5 µM
  TGI: > 100 µM
U251 CNS
  GI50: 0.659 µM
  TGI: > 100 µM
UACC-257 melanoma
  TGI: > 80.7 µM
UACC-62 melanoma
  GI50: 0.338 µM
  TGI: 7.67 µM and > 10 µM
UO-31 renal
  GI50: 0.293 µM
  TGI: 3.69 µM and 1.41 µM
